Earlier results, collected in US20220000751A1, “METHOD FOR PREPARING AND USING HAIR TREATMENT AGENTS WITH ORGANIC C1-C6-ALKOXY-SILANES” (Henkel AG & Co. KGaA, priority 2020, published 2022).

Details: 25° C.

Row | Compound | solubility in water | solubility in water (in words)
1 | CCN(Cc1cccc(S(=O)(=O)O)c1)c1ccc(C(=C2C=CC(=[N+](CC)Cc3cccc(S(=O)(=O)O)c3)C=C2)c2ccccc2S(=O)(=O)[O-])cc1 [Acid Blue 9] | more than 20 % by weight | –
2 | O=S(=O)(O)c1ccc(N=Nc2c(O)ccc3ccccc23)cc1 [Acid Orange 7, 4-[(2-hydroxy-1-naphthyl)azo]benzene sulphonate] | more than 7 g/L | –
3 | O=C(O)C1=NN(c2ccc(S(=O)(=O)O)cc2)C(=O)C1N=Nc1ccc(S(=O)(=O)O)cc1 (stereo not drawn) [Acid Yellow 23, 4,5-dihydro-5-oxo-1-(4-sulfophenyl)-4-((4-sulfophenyl)azo)-1H-pyrazole-3-carboxylic acid] | – | highly soluble
